Converted amounts (≈) assume the structure as drawn. Like-named read-outs stand apart in the source and are kept apart here. Peptide text beside a SMILES is read from it.
What was measured:
HEK293T cells = test system: HEK293T cells
Description: HEK293T cells were obtained from the American Type Culture Collection (CRL-3216). The cells were cultured in high-glucose Dulbecco’s modified Eagle’s medium supplemented with 1% penicillin and streptomycin (antibiotics) and 10% fetal bovine serum and grown at 37 °C in a humidified atmosphere containing 5% CO2.
One day before the experiment, an aliquot of 100 μl of the cells at 50,000 cells per ml was seeded into each well of the cell-treated 96-well plates used in the experiment (that is, 5,000 cells per well). […] After the incubation period, we performed the 3-(4,5-dimethylthiazol-2-yl)-2,5-diphenyltetrazolium bromide tetrazolium reduction assay (MTT assay)[53]. The MTT reagent was dissolved at 0.5 mg ml^−1 in medium without phenol red and was used to replace cell culture supernatants containing the peptides (100 μl per well), and the samples were incubated for 4 h at 37 °C in a humidified atmosphere containing 5% CO2 yielding the insoluble formazan salt. The resulting salts were then resuspended in hydrochloric acid (0.04 mol l^−1) in anhydrous isopropanol and quantified by spectrophotometric measurements of absorbance at 570 nm. All assays were done as three biological replicates.
Unless otherwise stated, all assays were performed in three independent biological replicates as indicated in each figure legend and Methods sections. The cytotoxic activities values were estimated using non-linear regression based on the range of concentrations screened and were shown as the values that cause lysis of 50% of the cells in the experiment. Two technical replicates were performed in the cytotoxicity assays within each of the three biological replicates.

[1] = test system: 11 clinically relevant bacterial pathogens; type: cell-based; conditions: Supplementary Dataset 2; against the 11 pathogens tested
Source text: (§1) The following Gram-negative bacteria were used in our study: A. baumannii ATCC 19606, E. coli ATCC 11775, E. coli AIC221 (E. coli MG1655 phnE_2::FRT), E. coli AIC222 (E. coli MG1655 pmrA53 phnE_2::FRT (colistin resistant)), K. pneumoniae ATCC 13883, P. aeruginosa PAO1 and P. aeruginosa PA14. The following Gram-positive bacteria were also used in our study: S. aureus ATCC 12600, S. aureus ATCC BAA-1556 (methicillin-resistant strain), E. faecalis ATCC 700802 (vancomycin-resistant strain) and E. faecium ATCC 700221 (vancomycin-resistant strain). Bacteria were grown from frozen stocks and plated on Luria–Bertani (LB) or Pseudomonas isolation agar plates (P. aeruginosa strains) and incubated overnight at 37 °C. After the incubation period, a single colony was transferred to 5 ml of LB medium, and cultures were incubated overnight (16 h) at 37 °C. The following day, an inoculum was prepared by diluting the overnight cultures 1:100 in 5 ml of the respective media and incubating them at 37 °C until bacteria reached logarithmic phase (OD600 = 0.3–0.5).
(§2) The in vitro antimicrobial activity of the peptides was assessed by using the broth microdilution assay. […] Aqueous solutions of the peptides were added to the plate at concentrations ranging from 1 to 64 μmol l^−1. […] The optical density of the plates was measured at 600 nm using a spectrophotometer. All assays were done as three biological replicates.

A. baumannii ATCC 19606 = type: cell-based, Acinetobacter baumannii; conditions: ATCC 19606, 20 h
Source text: as §1, §2

## CC[C@H](C)[C@H](NC(=O)[C@@H](N)[C@@H](C)O)C(=O)N[C@@H](CCCCN)C(=O)N[C@@H](CC(C)C)C(=O)N[C@@H](Cc1ccccc1)C(=O)N[C@@H](CC(C)C)C(=O)N[C@@H](CO)C(=O)N[C@@H](Cc1ccccc1)C(=O)N[C@@H](CCCCN)C(=O)N[C@@H](CC(C)C)C(=O)O [Xenothrixin-1] (H-TIKLFLSFKL-OH; N-terminus and C-terminus assumed)
HEK293T cells
  CC50: 70.77 µM
  TI (therapeutic index): 8.84
HEK293T cells; 24 h
  CC50: 70.77 µM
[1]
  Active or Inactive: Active
A. baumannii ATCC 19606
  Minimal inhibitory concentration, A. baumannii ATCC19606: 8 µM (≈ 9.68 µg/mL)

## CC[C@H](C)[C@H](NC(=O)[C@@H]1CCCN1C(=O)[C@H](CC(N)=O)NC(=O)[C@@H]1CCCN1C(=O)[C@@H]1CCCN1C(=O)[C@H](CCCCN)NC(=O)[C@@H](N)CCCCN)C(=O)N[C@@H](CCCCN)C(=O)N1CCC[C@H]1C(=O)N[C@@H](CCCCN)C(=O)N[C@H](C(=O)N1CCC[C@H]1C(=O)N[C@@H](CC(C)C)C(=O)N[C@@H](CO)C(=O)N[C@@H](C)C(=O)N1CCC[C@H]1C(=O)N[C@@H](CCCNC(=N)N)C(=O)N[C@@H](CCCCN)C(=O)N[C@@H](CO)C(=O)N1CCC[C@H]1C(=O)N[C@@H](CC(N)=O)C(=O)N[C@H](C(=O)N[C@H](C(=O)N[C@@H](CCCCN)C(=O)N[C@@H](Cc1ccc(O)cc1)C(=O)N[C@@H](CCCNC(=N)N)C(=O)N[C@@H](CC(C)C)C(=O)N[C@@H](CCCCN)C(=O)N[C@@H](Cc1ccccc1)C(=O)N[C@@H](CCCNC(=N)N)C(=O)O)C(C)C)[C@@H](C)O)C(C)C [Mammuthusin-5] (H-KKPPNPIKPKVPLSAPRKSPNTVKYRLKFR-OH; N-terminus and C-terminus assumed)
HEK293T cells; 24 h
  CC50: > 128 µM
  TI (therapeutic index): > 4
[1]
  Active or Inactive: Active
A. baumannii ATCC 19606
  Minimal inhibitory concentration, A. baumannii ATCC19606: 32 µM (≈ 112 µg/mL)

## CC[C@H](C)[C@H](NC(=O)[C@H](CC(C)C)NC(=O)[C@@H](NC(=O)[C@H](CCCCN)NC(=O)[C@H](Cc1c[nH]c2ccccc12)NC(=O)[C@@H](NC(=O)[C@H](CCCCN)NC(=O)[C@H](CC(=O)O)NC(=O)[C@@H](NC(=O)[C@H](CC(C)C)NC(=O)[C@H](Cc1ccccc1)NC(=O)[C@H](C)NC(=O)CNC(=O)[C@@H](NC(=O)[C@@H](N)CCCCN)C(C)C)C(C)C)C(C)C)[C@@H](C)O)C(=O)O [Anomalopterin-2] (H-KVGAFLVDKVWKTLI-OH; N-terminus and C-terminus assumed)
HEK293T cells; 24 h
  CC50: > 128 µM
[1]
  Active or Inactive: Active
A. baumannii ATCC 19606
  Minimal inhibitory concentration, A. baumannii ATCC19606: 32 µM (≈ 54.9 µg/mL)

## CC[C@H](C)[C@H](NC(=O)[C@H](CC(N)=O)NC(=O)[C@H](CC(C)C)NC(=O)[C@@H](NC(=O)[C@H](Cc1ccccc1)NC(=O)[C@@H]1CCCN1C(=O)[C@@H]1CCCN1C(=O)[C@@H](NC(=O)[C@H](CO)NC(=O)[C@H](CC(C)C)NC(=O)[C@H](CCCCN)NC(=O)[C@H](CCCCN)NC(=O)[C@H](Cc1ccc(O)cc1)NC(=O)[C@@H](NC(=O)[C@@H](N)CCCCN)[C@@H](C)CC)[C@@H](C)O)[C@@H](C)O)C(=O)N[C@@H](CCCNC(=N)N)C(=O)N[C@H](C(=O)N[C@@H](CC(C)C)C(=O)N1CCC[C@H]1C(=O)N[C@@H](CCCCN)C(=O)N[C@H](C(=O)N[C@@H](CCCCN)C(=O)N[C@@H](Cc1ccccc1)C(=O)N1CCC[C@H]1C(=O)N[C@@H](CCCCN)C(=O)O)C(C)C)[C@@H](C)O [Mylodonin-3] (H-KIYKKLSTPPFTLNIRTLPKVKFPK-OH; N-terminus and C-terminus assumed)
HEK293T cells; 24 h
  CC50: > 128 µM
[1]
  Active or Inactive: Active
A. baumannii ATCC 19606
  Minimal inhibitory concentration, A. baumannii ATCC19606: 16 µM (≈ 47.3 µg/mL)

## CC[C@H](C)[C@H](N)C(=O)N[C@@H](Cc1ccccc1)C(=O)N[C@@H](CC(C)C)C(=O)N[C@@H](Cc1c[nH]cn1)C(=O)N[C@@H](CC(C)C)C(=O)N[C@@H](CCCCN)C(=O)N[C@H](C(=O)N[C@@H](CC(C)C)C(=O)N[C@@H](CCCCN)C(=O)N[C@H](C(=O)N[C@H](C(=O)N[C@@H](Cc1c[nH]cn1)C(=O)N[C@@H](CC(C)C)C(=O)N[C@@H](CC(C)C)C(=O)O)[C@@H](C)CC)[C@@H](C)CC)[C@@H](C)O [Mammuthusin-1] (H-IFLHLKTLKIIHLL-OH; N-terminus and C-terminus assumed)
HEK293T cells; 24 h
  CC50: > 128 µM
[1]
  Active or Inactive: Active
A. baumannii ATCC 19606
  Minimal inhibitory concentration, A. baumannii ATCC19606: 8 µM (≈ 13.6 µg/mL)

## CC[C@H](C)[C@H](NC(=O)[C@H](CCCCN)NC(=O)[C@H](CC(N)=O)NC(=O)[C@@H](NC(=O)[C@@H](NC(=O)[C@H](Cc1c[nH]c2ccccc12)NC(=O)[C@H](CC(C)C)NC(=O)[C@H](CCC(N)=O)NC(=O)[C@H](CC(C)C)NC(=O)[C@@H](NC(=O)[C@H](C)NC(=O)[C@H](CC(C)C)NC(=O)[C@@H](N)CCCNC(=N)N)[C@@H](C)O)[C@@H](C)O)[C@@H](C)CC)C(=O)N[C@H](C(=O)N[C@@H](CCCCN)C(=O)N[C@@H](CCC(N)=O)C(=O)N[C@@H](CC(C)C)C(=O)N[C@@H](CCSC)C(=O)N[C@H](C(=O)N1CCC[C@H]1C(=O)N[C@@H](CC(C)C)C(=O)N[C@@H](CC(N)=O)C(=O)N[C@@H](CCCCN)C(=O)N1CCC[C@H]1C(=O)NCC(=O)N[C@@H](Cc1c[nH]cn1)C(=O)N[C@@H](CCCCN)C(=O)O)[C@@H](C)CC)[C@@H](C)O [Ararin-2] (H-RLATLQLWTINKITKQLMIPLNKPGHK-OH; N-terminus and C-terminus assumed)
HEK293T cells; 24 h
  CC50: > 128 µM
[1]
  Active or Inactive: Active
A. baumannii ATCC 19606
  Minimal inhibitory concentration, A. baumannii ATCC19606: 16 µM (≈ 50.5 µg/mL)

## CC[C@H](C)[C@H](NC(=O)[C@H](Cc1c[nH]cn1)NC(=O)[C@@H](N)CC(C)C)C(=O)NCC(=O)N[C@@H](CC(C)C)C(=O)N[C@H](C(=O)N[C@@H](CCCCN)C(=O)N[C@H](C(=O)N[C@@H](Cc1ccc(O)cc1)C(=O)N[C@@H](CC(C)C)C(=O)NCC(=O)N[C@@H](CO)C(=O)N[C@@H](Cc1ccccc1)C(=O)N[C@@H](C)C(=O)N[C@@H](CC(C)C)C(=O)O)[C@@H](C)O)[C@@H](C)CC [Eudyptin-1] (H-LHIGLIKTYLGSFAL-OH; N-terminus and C-terminus assumed)
HEK293T cells; 24 h
  CC50: > 128 µM
  TI (therapeutic index): > 2
[1]
  Active or Inactive: Active

## CC[C@H](C)[C@H](NC(=O)[C@H](CCCNC(=N)N)NC(=O)[C@H](Cc1c[nH]cn1)NC(=O)[C@H](CCCCN)NC(=O)[C@@H](NC(=O)CNC(=O)[C@H](CCCNC(=N)N)NC(=O)[C@H](C)NC(=O)[C@H](CCCCN)NC(=O)[C@@H](NC(=O)[C@H](C)NC(=O)[C@@H]1CCCN1C(=O)[C@H](CC(C)C)NC(=O)[C@H](CCC(N)=O)NC(=O)[C@H](CO)NC(=O)[C@H](Cc1ccccc1)NC(=O)[C@H](CC(C)C)NC(=O)[C@H](CC(C)C)NC(=O)[C@@H](NC(=O)[C@@H](N)CS)C(C)C)C(C)C)[C@@H](C)O)C(=O)N[C@@H](CCCCN)C(=O)N[C@@H](Cc1c[nH]c2ccccc12)C(=O)N[C@@H](CC(N)=O)C(=O)N[C@@H](CCCNC(=N)N)C(=O)N[C@@H](CCCCN)C(=O)O [Equusin-4] (H-CVLLFSQLPAVKARGTKHRIKWNRK-OH; N-terminus and C-terminus assumed)
HEK293T cells; 24 h
  CC50: > 128 µM
  TI (therapeutic index): > 8
[1]
  Active or Inactive: Active
A. baumannii ATCC 19606
  Minimal inhibitory concentration, A. baumannii ATCC19606: 16 µM (≈ 47.2 µg/mL)

## CC[C@H](C)[C@H](N)C(=O)N[C@@H](CC(C)C)C(=O)N[C@@H](CC(C)C)C(=O)N[C@H](C(=O)N[C@H](C(=O)N[C@@H](C)C(=O)N[C@H](C(=O)N[C@@H](C)C(=O)N[C@H](C(=O)N[C@@H](CCCCN)C(=O)N[C@@H](CC(C)C)C(=O)NCC(=O)N[C@@H](CC(C)C)C(=O)O)[C@@H](C)CC)[C@@H](C)CC)[C@@H](C)O)[C@@H](C)O [Ararin-1] (H-ILLTTAIAIKLGL-OH; N-terminus and C-terminus assumed)
HEK293T cells; 24 h
  CC50: > 128 µM
  TI (therapeutic index): > 4
[1]
  Active or Inactive: Active

— publication PMC11310081, “Deep-learning-enabled antibiotic discovery through molecular de-extinction” (Nature Biomedical Engineering, 2024)
